In general, kinetic solubility refers to solubility judged after dilution from a stock solution rather than from solid.

Values after ≈ are worked out from the molar mass of the structure shown.

These results are taken from PubChem BioAssay AID1996.

For this data set the following is noted: buffer; pH 7.4; 200.0 µM.
As for `COc1ccc(CN2CCN(C3CCC3)CC2CCO)cc1C` (stereo unspecified), the solubility (kinetic) is 0.0423 mg/mL (≈ 133 µM).

`CCOP(=O)(Cc1ccc(C#N)o1)OCC`: the kinetic solubility was over 0.0365 mg/mL.

For the compound `CCN(CC)S(=O)(=O)c1ccc(NC(=S)NC(=O)C2CCC2)cc1`, the solubility (kinetic) stood at 0.0187 mg/mL (≈ 50.6 µM).

For `CCCn1cccc(C(=O)Nc2ccc(OC)cc2)c1=O`, the solubility (kinetic) was over 0.0429 mg/mL.

Compound `CCCn1c(CCl)nc2cc(S(=O)(=O)N3CCOCC3)ccc21` returned a solubility (kinetic) of 0.0006 mg/mL (≈ 1.68 µM).

`O=C(CCNc1ccc(Br)cc1)c1cccc([N+](=O)[O-])c1`: the solubility (kinetic) came out at 0.0046 mg/mL (≈ 13.2 µM).

Regarding `CSc1ccccc1C(=O)OCC(=O)Nc1cccnc1Cl`, the solubility (kinetic) amounted to 0.0156 mg/mL (≈ 46.3 µM).

On to `CC(=O)Nc1ccc(CN2CCCN(C)CC2)cc1`, for which the solubility (kinetic) came out at 0.0292 mg/mL (≈ 112 µM).

Take `Cc1ccc(CN(C)C(=O)c2cccc(S(=O)(=O)N3CCCC3)c2)o1`: the kinetic solubility was over 0.0544 mg/mL.

For the compound `CC(=O)NCCc1ccc(C(=O)COC(=O)c2cc(C)oc2C)cc1`, the solubility (kinetic) is over 0.0515 mg/mL.

In turn, `CCNC(=O)COc1cc(C)c(Br)c(C)c1` displayed a kinetic solubility of over 0.0429 mg/mL.

In the case of `O=C1C2C3C=CC(CC3)C2C(=O)N1c1ccccc1F` (stereo unspecified), the kinetic solubility is 0.0196 mg/mL (≈ 72.2 µM).

As to `CCCN=C1CC(C)(C)CC(=O)/C1=C(/O)CCC`, the solubility (kinetic) worked out at 0.0375 mg/mL (≈ 149 µM).

`COCCCNC(=S)Nc1ccc(N2CCCCC2)cc1` had a solubility (kinetic) of over 0.0461 mg/mL.

As to `CN1CCN(c2ccc(CNC(=O)c3cc4ccccc4o3)cc2)CC1`, the kinetic solubility came to 0.0495 mg/mL (≈ 142 µM).

`COc1cc2nc(Cl)nc(N3CCOCC3)c2cc1OC` returned a solubility (kinetic) of 0.0131 mg/mL (≈ 42.3 µM).

Consider `O=C(CSc1ccncc1)Nc1ccc2ccccc2c1`, for which the kinetic solubility worked out at 0.0023 mg/mL (≈ 7.81 µM).

As for `Cc1csc(SC(C)C(=O)NCc2ccc3c(c2)OCO3)n1` (stereo unspecified), the solubility (kinetic) was determined as 0.049 mg/mL (≈ 146 µM).

`CCN(CC)S(=O)(=O)c1ccc(N2CCCC2)c(NC(=O)c2ccc([N+](=O)[O-])o2)c1`: the solubility (kinetic) stood at 0.0494 mg/mL (≈ 113 µM).

`CCC(=O)NCc1c(C)c(C)n(Cc2ccccc2)c1-n1cccc1`: the solubility (kinetic) amounted to 0.0046 mg/mL (≈ 13.7 µM).

For the compound `CCNC(=S)Nc1ccc2c(c1)oc1ccccc12`, the kinetic solubility was 0.0017 mg/mL (≈ 6.29 µM).

`O=[N+]([O-])/C=C1\NCCN1Cc1ccc(Cl)nc1` registered a kinetic solubility of 0.0358 mg/mL (≈ 141 µM).

Consider `Nc1ccc(C(=O)NCC2(c3ccccc3)CCCC2)cc1`, for which the kinetic solubility worked out at 0.0178 mg/mL (≈ 60.5 µM).

On to `NNC(=O)CCN1CCN(Cc2ccccc2)CC1`, for which the solubility (kinetic) is over 0.0394 mg/mL.

Take `COc1ccc(C(=O)OCC(=O)c2ccc[nH]2)c(OC)c1`: the kinetic solubility is over 0.0434 mg/mL.

On to `Cc1ccc(O)c(NC(=O)c2ccc3c(c2)C(=O)N(CC(C)C)C3=O)c1`, for which the solubility (kinetic) is under 0.0004 mg/mL.

As to `FC(F)(F)c1cccc(N2CCN(C3CC4CCC3C4)CC2)c1` (stereo unspecified), the kinetic solubility is 0.0014 mg/mL (≈ 4.32 µM).

In the case of `COCCCNc1nc2nonc2nc1NCCSC`, the solubility (kinetic) turned out to be 0.0371 mg/mL (≈ 124 µM).

`Cc1nc(N2CCN(C(=O)c3ccco3)CC2)[nH]c(=O)c1C` showed a solubility (kinetic) of over 0.0453 mg/mL.

Turning to `O=[N+]([O-])c1ccc(SCc2ccco2)cc1N1CCOCC1`, the kinetic solubility is 0.0132 mg/mL (≈ 41.2 µM).

In turn, `Cc1ccc(NC2SC(=O)N(Cc3cccc(C(=O)O)c3)C2=O)c(C)c1` (stereo unspecified) had a kinetic solubility of 0.0531 mg/mL (≈ 143 µM).

The compound `CC1(C)Cc2nc3scc(NC(=O)c4ccccc4)c3cc2CO1` displayed a kinetic solubility of 0.0059 mg/mL (≈ 17.4 µM).

`Cc1ccccc1C(=O)NC1CCN(CC(=O)NCc2ccccc2)CC1` gave a solubility (kinetic) of 0.0477 mg/mL (≈ 131 µM).

In turn, `O=C(CCN1C(=O)C2CC=CCC2C1=O)NC1CCCCC1` (stereo unspecified) yielded a solubility (kinetic) of over 0.0457 mg/mL.

`O=C(NCCCn1ccnc1)/C(=C/c1cccnc1)NC(=O)c1ccco1` gave a solubility (kinetic) of over 0.0548 mg/mL.

For `Cc1ccc(C23CC4CC(CC(C(N)=O)(C4)C2)C3)cc1`, the kinetic solubility was determined as 0.0166 mg/mL (≈ 61.6 µM).

Compound `O=[N+]([O-])c1ccc(N2CCN(Cc3ccncc3)CC2)cc1` registered a solubility (kinetic) of 0.0353 mg/mL (≈ 118 µM).

`C=CCNC(=S)N(C1CCCCC1)C1CCCCC1` showed a solubility (kinetic) of 0.021 mg/mL (≈ 74.9 µM).

`COc1cc(OC)cc(C(=O)Nc2ccc(CN3CCCCC3)cc2)c1` returned a solubility (kinetic) of 0.0492 mg/mL (≈ 139 µM).

With `Cc1cc(SCc2ccc(F)cc2)nc(=O)[nH]1`, the kinetic solubility amounted to 0.0221 mg/mL (≈ 88.3 µM).

In the case of `CC(C)Cc1cc(C(=O)Nc2ccccc2)c2ccccc2n1`, the solubility (kinetic) was 0.0039 mg/mL (≈ 12.8 µM).
